Results reported in PMC8328003 (ACS chemical neuroscience, 2021).
Where “and” joins values, the source holds several entries; their conditions need not be identical. Equal entries are not always repeated. Where two headings read alike, the source gives them in different places.

How the values were obtained:
[1] = target: mouse mu opioid receptor (mMOR) (Mus musculus, UniProt P42866); assay: Competition binding against 125I-IBNtxA, CHO cell membranes; settings: for Ki: 125I-IBNtxA (0.1 nM), CHO membranes
[2] = target: mouse kappa opioid receptor (mKOR) (Mus musculus, UniProt P33534); assay: as above
mMOR = mMOR (Mus musculus, UniProt P42866); assay: [35S]GTPγS functional assay, CHO membranes; assay type: biochemical; settings: for mMOR Emax: relative to DAMGO at 1000 nM
mDOR [3] = target: T1, mDOR (Mus musculus, UniProt P32300); assay: Competition binding against 125I-IBNtxA, CHO cell membranes
C57BL/6J mice [4] = assay: 55 °C warm-water tail-withdrawal assay; assay type: in vivo, mouse; settings: for antinociception ED50 (and 95% C.I.): WT C57BL/6J mice, from peak effect
mDOR [5] = target: T1, mDOR; assay: [35S]GTPγS functional assay, CHO membranes; assay type: biochemical; settings: for mDOR Emax: relative to DPDPE at 1000 nM
hα2A = target: T2, hα2A (Homo sapiens, UniProt P08913); assay: NIMH-PDSP radioligand binding; settings: read-out: affinity Ki hα2A
T2 sequence (P08913 1-465): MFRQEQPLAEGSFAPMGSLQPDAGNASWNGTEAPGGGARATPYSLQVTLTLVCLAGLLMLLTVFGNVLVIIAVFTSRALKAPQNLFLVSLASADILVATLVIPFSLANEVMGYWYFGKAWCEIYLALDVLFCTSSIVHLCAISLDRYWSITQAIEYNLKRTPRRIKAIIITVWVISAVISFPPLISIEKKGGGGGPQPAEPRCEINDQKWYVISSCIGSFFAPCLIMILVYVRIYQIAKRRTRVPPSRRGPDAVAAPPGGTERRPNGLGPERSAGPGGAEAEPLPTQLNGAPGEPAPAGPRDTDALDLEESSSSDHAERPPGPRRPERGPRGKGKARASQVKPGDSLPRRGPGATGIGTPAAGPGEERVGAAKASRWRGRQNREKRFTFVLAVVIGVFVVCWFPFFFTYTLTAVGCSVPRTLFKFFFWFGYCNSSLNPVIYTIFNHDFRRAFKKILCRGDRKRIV

hDAT = hDAT (Homo sapiens, UniProt Q01959); assay: NIMH-PDSP radioligand binding; settings: read-out: affinity Ki hDAT
hMOR [6] = target: T3, hMOR (Homo sapiens, UniProt P35372); assay: BRET βarrestin-2 recruitment, HEK293T cells; assay type: cell-based
hMOR [7] = target: T3, hMOR; assay: NIMH-PDSP radioligand binding; settings: read-out: affinity Ki hMOR
[8] = target: human mu opioid receptor (hMOR) (Homo sapiens, UniProt P35372); assay: cell-based; assay type: cell-based
hMOR [9] = target: T3, hMOR; assay type: cell-based
mKOR = mKOR (Mus musculus, UniProt P33534); assay: [35S]GTPγS functional assay, CHO membranes; assay type: biochemical; settings: for mKOR Emax: relative to U50,488H at 1000 nM
hKOR [10] = target: T4, hKOR (Homo sapiens, UniProt P41145); assay: BRET βarrestin-2 recruitment, HEK293T cells; assay type: cell-based; settings: for pEC50 ± SEM βarrestin-2 recruitment hKOR / EC50: BRET; for EC50: read-out: EC50 βarrestin-2 recruitment hKOR
hH1 = hH1 (Homo sapiens, UniProt P35367); assay: NIMH-PDSP radioligand binding; settings: read-out: affinity Ki hH1
hSERT = hSERT (Homo sapiens, UniProt P31645); assay: NIMH-PDSP radioligand binding; settings: read-out: affinity Ki hSERT
hDOR [11] = target: T5, hDOR (Homo sapiens, UniProt P41143); assay: BRET βarrestin-2 recruitment, HEK293T cells; assay type: cell-based; settings: for Emax% ± SEM βarrestin-2 recruitment hDOR: normalized to DPDPE
hKOR [12] = target: T4, hKOR; assay: NIMH-PDSP radioligand binding; settings: read-out: affinity Ki hKOR
hDOR [13] = target: T5, hDOR; assay: BRET Gi-1 activation, HEK293T cells; assay type: cell-based; settings: for Emax% ± SEM Gi-1 activation hDOR: normalized to control agonist (DPDPE; SNC80 in Figure 6G)
[14] = target: human kappa opioid receptor (hKOR) (Homo sapiens, UniProt P41145); assay: BRET Gi-1 activation, HEK293T cells; assay type: cell-based; settings: for pEC50 ± SEM Gi-1 activation hKOR / EC50: BRET; for EC50: read-out: EC50 Gi-1 activation hKOR
hMOR [15] = target: T3, hMOR; assay type: cell-based; remark: listed apart in the source
C57BL/6J mice [16] = assay: CLAMS breathing rate; assay type: in vivo, mouse; settings: 100 nmol, i.c.v., 180 min, versus vehicle
C57BL/6J mice [17] = assay: CLAMS locomotor activity; assay type: in vivo, mouse; settings: 100 nmol, i.c.v., 180 min, versus vehicle
hNET = hNET (Homo sapiens, UniProt P23975); assay: NIMH-PDSP radioligand binding; settings: read-out: affinity Ki hNET
hMOR [18] = settings: read-out: binding affinity at hMOR; cited from earlier work
MOR = settings: ex vivo; cited from earlier work
hNMDA = assay: NIMH-PDSP radioligand binding; set-up: species or system human; settings: read-out: affinity Ki hNMDA
[19] = i.c.v., MOR KO / KOR KO mice versus WT
[20] = affinity (Ki) mKOR, 125I-IBNtxA (0.1 nM)
[21] = affinity (Ki) mDOR, 125I-IBNtxA (0.1 nM)

Row | Compound | mMOR Emax (mMOR) | receptor dependence of antinociception (C57BL/6J mice [4]; [19]) | mDOR Emax (mDOR [5]) | Ki (hα2A) [nM] | Emax% ± SEM Gi-1 activation hMOR [8] | mKOR Emax (mKOR) | pEC50 ± SEM βarrestin-2 recruitment hKOR (hKOR [10]) | Emax% ± SEM βarrestin-2 recruitment hKOR (hKOR [10]; normalized to U50,488H) [%] | EC50 (hKOR [10]) [nM] | Emax% ± SEM βarrestin-2 recruitment hDOR (hDOR [11]) [%] | Ki (hKOR [12]) [nM] | Emax% ± SEM Gi-1 activation hDOR (hDOR [13]) [%] | pEC50 ± SEM Gi-1 activation hKOR [14] | Emax% ± SEM Gi-1 activation hKOR ([14]; normalized to U50,488H) [%] | EC50 [14] [nM] | effect on breath rate (C57BL/6J mice [16]) | locomotor effect (C57BL/6J mice [17]) | Ki ([1]; affinity (Ki) mMOR) | Ki [2, 20] [µM] | Ki (mDOR [3]; [21]) [nM] | other results
1 | C=C[C@H]1CN2CCc3c([nH]c4cccc(OC)c34)[C@H]2C[C@@H]1/C(=C\OC)C(=O)OC [isopaynantheine] | 50 ± 5% | MOR independent and KOR dependent | no activity | 2150 | < 20% | 93.5 ± 5% | 6.22 ± 0.43 | < 20 | 599 | < 20 | 27 | < 20 | 6.25 ± 0.066 | 80 | 560 |  |  |  |  |  | Ki ([1]; read-out: affinity (Ki) mMOR): 91.8 ± 5.8 nM; Ki ([2]; read-out: affinity (Ki) mKOR, 125I-IBNtxA (0.1 nM)): 0.325 µM and 0.326 µM; EC50 (mMOR; read-out: mMOR EC50, [35S]GTPγS): 192 ± 5.8 nM; Ki (mDOR [3]; read-out: affinity (Ki) mDOR, 125I-IBNtxA (0.1 nM)): 823 ± 127 nM; Ki (hDAT): 5070 nM; Emax% ± SEM βarrestin-2 recruitment hMOR (hMOR [6]; normalized to DAMGO): < 20%; Ki (hMOR [7]): 122 nM; Emax% ± SEM βarrestin-2 antagonism at MOR (hMOR [9]): 106 ± 8.67%; EC50 (mKOR; read-out: mKOR EC50, [35S]GTPγS): 282 ± 18 nM; Ki (hH1): 206 nM; Ki (hSERT): 5110 nM; Emax% ± SEM Gi-1 activation hKOR ([14]; normalized to U50,488H, listed as Isopaynantheine): 80.5 ± 2.9%; Emax% ± SEM Gi-1 antagonism at MOR (hMOR [15]): 156.91 ± 13.49%
2 | CC[C@H]1CN2CCc3c([nH]c4cccc(OC)c34)[C@H]2C[C@@H]1/C(=C\OC)C(=O)OC [mitraciliatine] |  | MOR dependent and, surprisingly, independent of KOR |  | 2150 |  |  | 6.42 ± 0.06 | 104 | 383 | < 20 | 73 |  | 6.57 ± 0.06 | 114.32 ± 2.42 | 269 | no respiratory depression | no significant hyperlocomotion |  |  |  | effect on breath rate (C57BL/6J mice [16]; listed as Mitraciliatine): increase in breath rates; Ki (hNET): 6600 nM; maximal antinociception (ceiling effect, % MPE) (C57BL/6J mice [4]; i.c.v., WT mice, mitraciliatine at 100 nmol): 67%; Emax% ± SEM βarrestin-2 recruitment hKOR (hKOR [10]; normalized to U50,488H, listed as Mitraciliatine): 104.13 ± 2.57%
3 | CC[C@@H]1CN2CC[C@]3(C(=O)Nc4ccccc43)[C@@H]2C[C@@H]1/C(=C\OC)C(=O)OC [corynoxine B] | no activity |  | no activity |  |  | no activity |  |  |  |  |  |  |  |  |  |  |  | 5010 ± 388 nM | > 1 | 1680 ± 261 | Ki ([2]; affinity (Ki) mKOR, 125I-IBNtxA (0.1 nM), μM): > 10 µM
4 | CC[C@@H]1CN2CC[C@@]3(C(=O)Nc4ccccc43)[C@@H]2C[C@@H]1/C(=C\OC)C(=O)OC [corynoxine] | 136.4 ± 3.3% | MOR dependent | no activity |  |  | no activity |  |  |  |  |  |  |  |  |  | no depression of breath rate | did not produce significant hyperlocomotion | 140 nM and 141 nM | 3.08 ± 1.73 | 1270 ± 226 | effect on breath rate (C57BL/6J mice [16]; listed as Corynoxine): increase in breath rates; EC50 (mMOR): 203 ± 4.4 nM; Emax at 1 µM (mMOR; read-out: mMOR Emax, relative to DAMGO at 1000 nM): 136%; antinociception ED50 (and 95% C.I.) (C57BL/6J mice [4]; i.c.v.): 3.43 (0.53–6.41) nmol; Emax (hMOR [6]; HEK-293T, read-out: Emax% ± SEM βarrestin-2 recruitment hMOR): < 20%; EC50 [8]: 1630 nM; fold less potent than DAMGO, Gi-1 hMOR [8]: 58 fold; Emax ([8]; HEK-293T, read-out: Emax% ± SEM Gi-1 activation hMOR): 96.5 ± 4.69%; mKOR EC50 (mKOR; [35S]GTPγS): no activity; Emax (hKOR [10]; HEK-293T, read-out: Emax% ± SEM βarrestin-2 recruitment hKOR): < 20%; Ki (hMOR [18]): 16.4 nM; Emax (hDOR [11]; HEK-293T, read-out: Emax% ± SEM βarrestin-2 recruitment hDOR): < 20%; Emax (hDOR [13]; HEK-293T, read-out: Emax% ± SEM Gi-1 activation hDOR): < 20%; Emax ([14]; HEK-293T, read-out: Emax% ± SEM Gi-1 activation hKOR): < 20%
5 | corynantheidine |  |  | no activity |  | 37% and 37.2 ± 4.30% | no activity |  |  |  | < 20 |  | < 20 |  |  |  |  |  |  |  |  | agonist action in guinea pig ileum (MOR): no agonist actions; fold higher mMOR affinity than mitragynine ([1]; same binding assay): ~4 fold; fold less potent than DAMGO, [35S]GTPγS (mMOR; mMOR): about 30 fold; mMOR Emax (mMOR; listed as corynanthedine): 74.13 ± 1.24%; maximal antinociception (ceiling effect, % MPE) (C57BL/6J mice [4]; mouse, in vivo): 50%; receptor dependence of antinociception (C57BL/6J mice [4]; mouse, in vivo): MOR dependent; mDOR EC50 (mDOR [5]; [35S]GTPγS): no activity; Ki (hNMDA): 83 nM; Emax% ± SEM βarrestin-2 recruitment hMOR (hMOR [6]): < 20%; fold less potent than DAMGO, Gi-1 hMOR [8]: 20 fold; mKOR EC50 (mKOR; [35S]GTPγS): no activity; Emax% ± SEM βarrestin-2 recruitment hKOR (hKOR [10]): < 20%; Emax% ± SEM Gi-1 activation hKOR [14]: < 20%
6 | CN1CC[C@]23c4c5ccc(O)c4O[C@H]2[C@@H](O)C=C[C@H]3[C@H]1C5 [morphine, reference compound] |  |  |  |  |  |  |  |  |  |  |  |  |  |  |  | significant decrease in breath rate | significant locomotor effect |  |  |  | antinociception ED50 (and 95% C.I.) (C57BL/6J mice [4]; i.c.v.): 4.77 (1.49–28.8) nmol
